For this test, the target named is PI3Kδ (PI3Kd) (Homo sapiens (Human), UniProt O00329). In words: PI3K HTRF enzymatic inhibition assay (cell-free), delta isoform. To be noted: read-out: IC50 PI3Kd HTRF; recombinant PI3K delta, [ATP] 15 μM, [PIP2] 2 μM, 30 min preincubation. On the technique in general: TR-FRET usually uses a lanthanide donor and a delayed reading to cut background.
PI3Kδ (PI3Kd), sequence (O00329 whole entry, canonical isoform): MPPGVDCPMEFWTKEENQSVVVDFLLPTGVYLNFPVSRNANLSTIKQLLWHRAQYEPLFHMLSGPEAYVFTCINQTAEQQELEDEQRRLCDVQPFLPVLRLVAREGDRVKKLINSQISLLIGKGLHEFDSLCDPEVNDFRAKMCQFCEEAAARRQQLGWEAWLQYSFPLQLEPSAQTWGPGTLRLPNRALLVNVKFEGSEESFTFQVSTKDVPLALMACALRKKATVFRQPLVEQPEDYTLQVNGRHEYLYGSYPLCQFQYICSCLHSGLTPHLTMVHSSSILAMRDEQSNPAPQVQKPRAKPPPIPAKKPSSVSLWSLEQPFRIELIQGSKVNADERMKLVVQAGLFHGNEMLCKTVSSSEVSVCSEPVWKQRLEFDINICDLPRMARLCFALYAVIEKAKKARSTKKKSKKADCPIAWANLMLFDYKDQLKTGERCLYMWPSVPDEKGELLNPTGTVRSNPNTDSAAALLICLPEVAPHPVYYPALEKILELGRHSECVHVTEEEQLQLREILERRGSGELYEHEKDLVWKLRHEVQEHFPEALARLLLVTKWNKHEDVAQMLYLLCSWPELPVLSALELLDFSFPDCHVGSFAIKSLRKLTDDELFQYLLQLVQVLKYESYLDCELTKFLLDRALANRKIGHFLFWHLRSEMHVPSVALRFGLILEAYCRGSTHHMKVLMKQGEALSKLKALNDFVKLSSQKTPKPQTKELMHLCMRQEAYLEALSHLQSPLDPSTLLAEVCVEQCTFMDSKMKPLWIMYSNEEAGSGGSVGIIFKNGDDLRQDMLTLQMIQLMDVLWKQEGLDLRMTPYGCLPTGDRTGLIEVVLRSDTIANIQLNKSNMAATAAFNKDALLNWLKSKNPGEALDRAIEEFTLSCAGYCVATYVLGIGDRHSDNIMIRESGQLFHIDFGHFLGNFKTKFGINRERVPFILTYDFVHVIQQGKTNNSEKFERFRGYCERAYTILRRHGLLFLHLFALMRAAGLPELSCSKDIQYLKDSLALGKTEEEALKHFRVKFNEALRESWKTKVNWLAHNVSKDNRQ
PI3Kδ (PI3Kd), sequence (P27986 whole entry partner, canonical isoform): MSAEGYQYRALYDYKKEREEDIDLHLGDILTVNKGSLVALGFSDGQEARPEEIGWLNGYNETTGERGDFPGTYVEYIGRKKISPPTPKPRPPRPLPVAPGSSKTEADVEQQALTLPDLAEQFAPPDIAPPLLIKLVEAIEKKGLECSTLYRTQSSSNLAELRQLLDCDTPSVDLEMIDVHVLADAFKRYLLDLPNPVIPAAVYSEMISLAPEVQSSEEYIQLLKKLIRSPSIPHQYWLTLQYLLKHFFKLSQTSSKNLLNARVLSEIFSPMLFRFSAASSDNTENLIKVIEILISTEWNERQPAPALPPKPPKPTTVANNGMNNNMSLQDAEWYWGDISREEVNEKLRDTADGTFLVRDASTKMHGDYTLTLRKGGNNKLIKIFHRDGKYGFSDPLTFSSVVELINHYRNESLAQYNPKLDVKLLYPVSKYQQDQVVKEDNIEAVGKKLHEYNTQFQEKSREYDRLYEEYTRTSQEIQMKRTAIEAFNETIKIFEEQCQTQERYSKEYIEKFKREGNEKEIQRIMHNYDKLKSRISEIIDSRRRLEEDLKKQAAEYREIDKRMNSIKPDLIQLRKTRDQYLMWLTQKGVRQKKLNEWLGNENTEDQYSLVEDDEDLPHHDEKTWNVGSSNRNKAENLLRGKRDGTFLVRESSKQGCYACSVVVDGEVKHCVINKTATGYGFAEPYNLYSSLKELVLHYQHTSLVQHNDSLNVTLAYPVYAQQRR
Text: Compounds were screened for their ability to inhibit PI3Kα (PI3Ka), PI3Kβ (PI3Kb), PI3Kδ (PI3Kd) and PI3Kγ (PI3Kg) using a cell-free based PI3K HTRF™ assay (Millipore, ref. #33-017).
PI-3 Kinase HTRF kit (ref. #33-037) and the different PI3K recombinant isoforms (ref. #14-602, ref. #14-603, ref. #14-604, ref. #15-558 for Alpha, Beta, Delta and Gamma respectively) were purchased at Millipore (expressed in insect cells). ATP was purchased at Sigma Aldrich (ref. #A7699).
The compounds were pre-incubated with the enzyme for 30 min before starting of the catalytic reaction. [PIP2] was used at its Km. […] Time of assay and [Enzyme] were optimized to work in the linear range. Stop and Detection mixtures were used as specified in the Millipore PI-3 Kinase kit.
Reaction time and enzyme concentration in the assay will depend of each batch.
All experiments were analysed using Activity Base software from IDBS and the four-parameter log equation.
The term IC50 denotes the concentration that inhibits the measured activity by half. Regarding `CC(C)N1CCN(C(=O)CCCC#Cc2ccn3nc([C@H](C)Nc4ncnc(N)c4C#N)n(-c4ccccc4)c(=O)c23)CC1` [Example 128, (S)-4-Amino-6-((1-(5-(6-(4-isopropylpiperazin-1-yl)-6-oxohex-1-yn-1-yl)-4-oxo-3-phenyl-3,4-dihydropyrrolo[2,1-f][1,2,4]triazin-2-yl)ethyl)amino)pyrimidine-5-carbonitrile], the IC50 was found to be 4 nM.

As to `Cc1ccn2nc([C@H](C)Nc3ncnc(N)c3-c3cc(O)cc(NS(=O)(=O)c4ccc(F)cc4F)c3)n(-c3ccccc3)c(=O)c12` [Example 130, (S)—N-(3-(4-Amino-6-((1-(5-methyl-4-oxo-3-phenyl-3,4-dihydropyrrolo[2,1-f][1,2,4]triazin-2-yl)ethyl)amino)pyrimidin-5-yl)-5-hydroxyphenyl)-2,4-difluorobenzenesulfonamide], the IC50 amounted to 1 nM. Then `Cc1ccn2nc([C@H](C)Nc3ncnc(N)c3-c3cncc(OCC(F)(F)F)c3)n(-c3ccccc3)c(=O)c12` [Example 132, (S)-2-(1-((6-Amino-5-(5-(2,2,2-trifluoroethoxyl)pyridin-3-yl)pyrimidin-4-yl)amino)ethyl)-5-methyl-3-phenylpyrrolo[2,1-f][1,2,4]triazin-4(3H)-one], with 2 nM; and `COc1cc(-c2c(N)ncnc2N[C@@H](C)c2nn3ccc(C)c3c(=O)n2-c2ccccc2)cc(C(F)(F)F)n1` [Example 137, (S)-2-(1-((6-Amino-5-(2-methoxy-6-(trifluoromethyl)pyridin-4-yl)pyrimidin-4-yl)amino)ethyl)-5-methyl-3-phenylpyrrolo[2,1-f][1,2,4]triazin-4(3H)-one], with 4 nM. The figure for `Cc1ccn2nc([C@H](C)Nc3ncnc4[nH]cc(-c5cnc6[nH]ccc6c5)c34)n(-c3ccccc3)c(=O)c12` [Example 139, (S)-2-(1-((5-(1H-Pyrrolo[2,3-b]pyridin-5-yl)-7H-pyrrolo[2,3-d]pyrimidin-4-yl)amino)ethyl)-5-methyl-3-phenylpyrrolo[2,1-f][1,2,4]triazin-4(3H)-one] is 0.2 nM. The figure for `Cc1ccn2nc([C@H](C)Nc3ncnc4[nH]cc(-c5cnn(CCCO)c5)c34)n(-c3ccccc3)c(=O)c12` [Example 140, (S)-2-(1-((5-(1-(3-Hydroxypropyl)-1H-pyrazol-4-yl)-7H-pyrrolo[2,3-d]pyrimidin-4-yl)amino)ethyl)-5-methyl-3-phenylpyrrolo[2,1-f][1,2,4]triazin-4(3H)-one] is 0.2 nM. Take `Cc1ccn2nc([C@H](C)Nc3ncnc4[nH]cc(-c5ccn(CCN6CCOCC6)n5)c34)n(-c3ccccc3)c(=O)c12` [Example 144, (S)-5-Methyl-2-(1-((5-(1-(2-morpholinoethyl)-1H-pyrazol-3-yl)-7H-pyrrolo[2,3-d]pyrimidin-4-yl)amino)ethyl)-3-phenylpyrrolo[2,1-f][1,2,4]triazin-4(3H)-one]: the IC50 was found to be 2 nM. Then `Cc1ccn2nc([C@H](C)Nc3ncnc4[nH]cc(-c5ccn(CC(F)(F)F)n5)c34)n(-c3ccccc3)c(=O)c12` [Example 145, (S)-5-Methyl-3-phenyl-2-(1-((5-(1-(2,2,2-trifluoroethyl)-1H-pyrazol-3-yl)-7H-pyrrolo[2,3-d]pyrimidin-4-yl)amino)ethyl)pyrrolo[2,1-f][1,2,4]triazin-4(3H)-one], with 0.2 nM; and `COc1cc(C#N)cc(-c2c[nH]c3ncnc(N[C@@H](C)c4nn5ccc(C)c5c(=O)n4-c4ccccc4)c23)c1` [Example 147, (S)-3-Methoxy-5-(4-((1-(5-methyl-4-oxo-3-phenyl-3,4-dihydropyrrolo[2,1-f][1,2,4]triazin-2-yl)ethyl)amino)-7H-pyrrolo[2,3-d]pyrimidin-5-yl)benzonitrile], with 0.4 nM.

The values are drawn from US9388189B2, “Pyrrolotriazinone derivatives as PI3K inhibitors” (ALMIRALL, S.A., priority 2012, dated 2016).
